# From patent US20250319067A1, “Improved Pharmacokinetics of Tryptamine Prodrugs” (Reunion Neuroscience, Inc., priority 2023, published 2025)
# Test system: healthy females
# Test: Phase 1 FIH single ascending dose study: safety and tolerability (AEs)
# Format: in vivo, human
# Experimental: The study was a double-blind, randomized, placebo-controlled Phase 1 single ascending dose study in up to 6 cohorts in healthy females. Eligibility was assessed during a screening period of up to 28 days prior to enrollment. For the treatment period, subjects were admitted to the clinical research unit (CRU) one day prior to the dosing (Day −1). On Day 1, all subjects will received the assigned SC dose of RE104 HCl or placebo in a fed state (after domiciling overnight and consuming a planned evening meal on Day −1 and morning meal on Day 1 while at the CRU). Subjects were allowed to select snacks from a planned menu from 4 hours following dosing. Subjects were discharged from the clinic on Day 2 (−24 hours post-dose) after all required study procedures were completed and if deemed medically fit. Subjects returned to the clinic on Day 10 (±2 days) for a follow up visit.
# Six (6) cohorts were enrolled in the study. Six (6) single doses were tested in 6 cohorts (Cohort 1 to Cohort 6) of 8 healthy female subjects (6 active and 2 placebo), as indicated in FIG. 1 and Table 3.
# The starting dose was 5.5 mg RE104 HCl. Sentinels were used in all cohorts. Within each cohort, 2 subjects were treated first: 1 subject received RE104 HCl and 1 subject received placebo.
# The study was monitored by a safety review committee (SRC). […] Safety, tolerability, and available PK data were assessed by the SRC between each cohort before ascending to the next dose level (Table 3). After each cohort dosing was complete, the SRC met to discuss dose escalation. Escalation to the next higher dose level occurred only after evaluation of the safety and tolerability data up to and including at least 24 hours post-dose of all evaluable subjects in the previous dose cohort. Available PK results were requested for determination of dose escalation, as deemed necessary.
# Dosing took place at a time point agreed to with the investigational pharmacy and acceptable to the investigator. RE104 HCl or placebo were administered as a SC injection in the upper arm. Subjects received RE104 HCl or placebo in a fed state. The time of administration of RE104 HCl or placebo was be recorded in the eCRF. The regimen used is outlined in Table 3.
# Within each cohort, 2 sentinel subjects were treated first: 1 subject received RE104 HCl and 1 subject received placebo. […] All drug administration was be done under direct medical supervision. Study subjects were overseen during the potentially psychoactive study drug period by professionals trained to monitor psychedelic experiences.
structure (smiles),measurement,setting,value
CC(C)N(CCc1c[nH]c2cccc(OC(=O)CCCC(=O)O)c12)C(C)C [RE104],AE Abdominal pain,"RE104 5.5 mg, n = 6",0 n (%)
same,AE Agitation,"RE104 5.5 mg, n = 6",0 n (%)
same,AE Diarrhea,"RE104 5.5 mg, n = 6",0 n (%)
same,AE Distress,"RE104 5.5 mg, n = 6",0 n (%)
same,AE Fatigue,"RE104 5.5 mg, n = 6",0 n (%)
same,AE Feeling hot,"RE104 5.5 mg, n = 6",0 n (%)
same,AE Headache,"RE104 5.5 mg, n = 6",0 n (%)
same,AE Heart rate increased,"RE104 5.5 mg, n = 6",0 n (%)
same,AE Hyperhidrosis,"RE104 5.5 mg, n = 6",0 n (%)
same,AE Muscle twitching,"RE104 5.5 mg, n = 6",0 n (%)
same,AE Musculoskeletal injury,"RE104 5.5 mg, n = 6",0 n (%)
same,AE Nausea,"RE104 5.5 mg, n = 6",1 (16.7) n (%)
same,AE Restlessness,"RE104 5.5 mg, n = 6",0 n (%)
same,AE Sinus tachycardia,"RE104 5.5 mg, n = 6",0 n (%)
same,AE Thirst,"RE104 5.5 mg, n = 6",0 n (%)
same,AE Tremor,"RE104 5.5 mg, n = 6",0 n (%)
same,AE Vomiting,"RE104 5.5 mg, n = 6",1 (16.7) n (%)
same,AEs leading to,"RE104 5.5 mg, n = 6",0 n (%)
same,Any AE,"RE104 5.5 mg, n = 6",2 (33.3) n (%)
same,Any SAE,"RE104 5.5 mg, n = 6",0 n (%)
same,Severe AEs,"RE104 5.5 mg, n = 6",0 n (%)
same,AE Abdominal pain,"RE104 11 mg, n = 6",0 n (%)
same,AE Agitation,"RE104 11 mg, n = 6",0 n (%)
same,AE Diarrhea,"RE104 11 mg, n = 6",0 n (%)
same,AE Distress,"RE104 11 mg, n = 6",0 n (%)
same,AE Fatigue,"RE104 11 mg, n = 6",0 n (%)
same,AE Feeling hot,"RE104 11 mg, n = 6",0 n (%)
same,AE Headache,"RE104 11 mg, n = 6",1 (16.7) n (%)
same,AE Heart rate increased,"RE104 11 mg, n = 6",0 n (%)
same,AE Hyperhidrosis,"RE104 11 mg, n = 6",0 n (%)
same,AE Muscle twitching,"RE104 11 mg, n = 6",0 n (%)
same,AE Musculoskeletal injury,"RE104 11 mg, n = 6",0 n (%)
same,AE Nausea,"RE104 11 mg, n = 6",2 (33.3) n (%)
same,AE Restlessness,"RE104 11 mg, n = 6",0 n (%)
same,AE Sinus tachycardia,"RE104 11 mg, n = 6",0 n (%)
same,AE Thirst,"RE104 11 mg, n = 6",0 n (%)
same,AE Tremor,"RE104 11 mg, n = 6",0 n (%)
same,AE Vomiting,"RE104 11 mg, n = 6",0 n (%)
same,AEs leading to,"RE104 11 mg, n = 6",0 n (%)
same,Any AE,"RE104 11 mg, n = 6",2 (33.3) n (%)
same,Any SAE,"RE104 11 mg, n = 6",0 n (%)
same,Severe AEs,"RE104 11 mg, n = 6",0 n (%)
same,AE Abdominal pain,"RE104 22 mg, n = 6",0 n (%)
same,AE Agitation,"RE104 22 mg, n = 6",0 n (%)
same,AE Diarrhea,"RE104 22 mg, n = 6",1 (16.7) n (%)
same,AE Distress,"RE104 22 mg, n = 6",0 n (%)
same,AE Fatigue,"RE104 22 mg, n = 6",0 n (%)
same,AE Feeling hot,"RE104 22 mg, n = 6",1 (16.7) n (%)
same,AE Headache,"RE104 22 mg, n = 6",0 n (%)
same,AE Heart rate increased,"RE104 22 mg, n = 6",1 (16.7) n (%)
same,AE Hyperhidrosis,"RE104 22 mg, n = 6",1 (16.7) n (%)
same,AE Muscle twitching,"RE104 22 mg, n = 6",0 n (%)
same,AE Musculoskeletal injury,"RE104 22 mg, n = 6",0 n (%)
same,AE Nausea,"RE104 22 mg, n = 6",0 n (%)
same,AE Restlessness,"RE104 22 mg, n = 6",0 n (%)
same,AE Sinus tachycardia,"RE104 22 mg, n = 6",0 n (%)
same,AE Thirst,"RE104 22 mg, n = 6",0 n (%)
same,AE Tremor,"RE104 22 mg, n = 6",0 n (%)
same,AE Vomiting,"RE104 22 mg, n = 6",0 n (%)
same,AEs leading to,"RE104 22 mg, n = 6",0 n (%)
same,Any AE,"RE104 22 mg, n = 6",2 (33.3) n (%)
same,Any SAE,"RE104 22 mg, n = 6",0 n (%)
same,Severe AEs,"RE104 22 mg, n = 6",0 n (%)
same,AE Abdominal pain,"RE104 33 mg, n = 9",2 (22.2) n (%)
same,AE Agitation,"RE104 33 mg, n = 9",0 n (%)
same,AE Diarrhea,"RE104 33 mg, n = 9",0 n (%)
same,AE Distress,"RE104 33 mg, n = 9",0 n (%)
same,AE Fatigue,"RE104 33 mg, n = 9",2 (22.2) n (%)
same,AE Feeling hot,"RE104 33 mg, n = 9",0 n (%)
same,AE Headache,"RE104 33 mg, n = 9",1 (11.1) n (%)
same,AE Heart rate increased,"RE104 33 mg, n = 9",0 n (%)
same,AE Hyperhidrosis,"RE104 33 mg, n = 9",0 n (%)
same,AE Muscle twitching,"RE104 33 mg, n = 9",3 (33.3) n (%)
same,AE Musculoskeletal injury,"RE104 33 mg, n = 9",1 (11.1) n (%)
same,AE Nausea,"RE104 33 mg, n = 9",3 (33.3) n (%)
same,AE Restlessness,"RE104 33 mg, n = 9",3 (33.3) n (%)
same,AE Sinus tachycardia,"RE104 33 mg, n = 9",4 (44.4) n (%)
same,AE Thirst,"RE104 33 mg, n = 9",0 n (%)
same,AE Tremor,"RE104 33 mg, n = 9",1 (11.1) n (%)
same,AE Vomiting,"RE104 33 mg, n = 9",0 n (%)
same,AEs leading to,"RE104 33 mg, n = 9",0 n (%)
same,Any AE,"RE104 33 mg, n = 9",8 (88.9) n (%)
same,Any SAE,"RE104 33 mg, n = 9",0 n (%)
same,Severe AEs,"RE104 33 mg, n = 9",0 n (%)
same,AE Abdominal pain,"RE104 38 mg, n = 6",0 n (%)
same,AE Agitation,"RE104 38 mg, n = 6",2 (33.3) n (%)
same,AE Diarrhea,"RE104 38 mg, n = 6",2 (33.3) n (%)
same,AE Distress,"RE104 38 mg, n = 6",1 (16.7) n (%)
same,AE Fatigue,"RE104 38 mg, n = 6",0 n (%)
same,AE Feeling hot,"RE104 38 mg, n = 6",0 n (%)
same,AE Headache,"RE104 38 mg, n = 6",4 (66.7) n (%)
same,AE Heart rate increased,"RE104 38 mg, n = 6",0 n (%)
same,AE Hyperhidrosis,"RE104 38 mg, n = 6",1 (16.7) n (%)
same,AE Muscle twitching,"RE104 38 mg, n = 6",0 n (%)
same,AE Musculoskeletal injury,"RE104 38 mg, n = 6",0 n (%)
same,AE Nausea,"RE104 38 mg, n = 6",2 (33.3) n (%)
same,AE Restlessness,"RE104 38 mg, n = 6",3 (50.0) n (%)
same,AE Sinus tachycardia,"RE104 38 mg, n = 6",3 (50.0) n (%)
same,AE Thirst,"RE104 38 mg, n = 6",2 (33.3) n (%)
same,AE Tremor,"RE104 38 mg, n = 6",0 n (%)
same,AE Vomiting,"RE104 38 mg, n = 6",0 n (%)
same,AEs leading to,"RE104 38 mg, n = 6",0 n (%)
same,Any AE,"RE104 38 mg, n = 6",5 (83.3) n (%)
same,Any SAE,"RE104 38 mg, n = 6",0 n (%)
same,Severe AEs,"RE104 38 mg, n = 6",1 (16.7) n (%)
same,AE Abdominal pain,"RE104 44 mg, n = 3",0 n (%)
same,AE Agitation,"RE104 44 mg, n = 3",2 n (%)
same,AE Diarrhea,"RE104 44 mg, n = 3",0 n (%)
same,AE Distress,"RE104 44 mg, n = 3",1 n (%)
same,AE Fatigue,"RE104 44 mg, n = 3",0 n (%)
same,AE Feeling hot,"RE104 44 mg, n = 3",0 n (%)
same,AE Headache,"RE104 44 mg, n = 3",0 n (%)
same,AE Heart rate increased,"RE104 44 mg, n = 3",0 n (%)
same,AE Hyperhidrosis,"RE104 44 mg, n = 3",1 n (%)
same,AE Muscle twitching,"RE104 44 mg, n = 3",0 n (%)
same,AE Musculoskeletal injury,"RE104 44 mg, n = 3",0 n (%)
same,AE Nausea,"RE104 44 mg, n = 3",2 n (%)
same,AE Restlessness,"RE104 44 mg, n = 3",1 n (%)
same,AE Sinus tachycardia,"RE104 44 mg, n = 3",2 n (%)
same,AE Thirst,"RE104 44 mg, n = 3",0 n (%)
same,AE Tremor,"RE104 44 mg, n = 3",1 n (%)
same,AE Vomiting,"RE104 44 mg, n = 3",1 n (%)
same,AEs leading to,"RE104 44 mg, n = 3",0 n (%)
same,Any AE,"RE104 44 mg, n = 3",3 n (%)
same,Any SAE,"RE104 44 mg, n = 3",0 n (%)
same,Severe AEs,"RE104 44 mg, n = 3",1 n (%)
same,"sinus tachycardia, maximum recorded value",asymptomatic,115 beats per minute
